The values that follow come from patent US12503719B2, “Metabolomic characterization of microorganisms” (priority 2019, dated 2025).

For experiment [1], the system named is E. faecalis. As to conditions: published CLSI MIC used as test concentration; cited from earlier work.
The conditions of experiment [2]: published CLSI MIC used as test concentration; species not given; cited from earlier work.
Experiment [3] deals with S. pneumoniae. The following applies: published CLSI MIC used as test concentration; cited from earlier work.
In experiment [4] the test system is K. pneumoniae. As to conditions: published CLSI MIC used as test concentration; cited from earlier work.
Experiment [5] deals with E. coli. As to conditions: published CLSI MIC used as test concentration; cited from earlier work.
Experiment [6] relates to S. aureus. The following applies: published CLSI MIC used as test concentration; cited from earlier work.
In experiment [7] the test system is KP. Briefly: MAST: hypoxanthine production after 4 h incubation with antimicrobial. It counts as cell-based, Klebsiella pneumoniae. An excerpt:
All chemicals were obtained from Sigma-Aldrich (St. Louis, Mo. USA), VWR (Radnor, Pa. USA), or Fisher Scientific (Waltham, Mass. USA) unless otherwise specified. Clinical isolates used in this study were obtained from bloodstream infected patients. All strains were first identified and tested for antibiotic susceptibility using a clinical laboratory testing pipeline (plating on selective medium for single colony isolation, Gram staining, MALDI-TOF-MS species identification, and sub-culturing for purity and inoculation onto VITEK 2 (bioMerieux) antimicrobial susceptibility panels), and subsequently frozen as cryostocks. With the exception of S. pneumoniae, all strains were routinely grown in Mueller Hinton medium (BD Difco, Mississauga, ON, Canada). S. pneumoniae isolates were first revived on trypticase soy agar plates containing sheep blood (BD BBL, Mississauga, ON, Canada) and then sub-cultured into Mueller Hinton medium supplemented with catalase (1000 U/mL). For biomarker discovery and validation of biomarkers using MPAs, exponential phase cultures were used to seed 96 well culture plates (Corning, N.Y., N.Y. USA) containing Mueller Hinton medium with 10% donated human blood to a 0.5 McFarland (OD600˜0.07 or ˜1.5×10^8 CFU/mL). […] Supernatant was then diluted 1:10 with 50% LC-MS grade methanol and analyzed using UHPLC-MS. […]

Experiment [8] deals with P. aeruginosa. As to conditions: published CLSI MIC used as test concentration; cited from earlier work.
Experiment [9] relates to C. albicans. As to conditions: published CLSI MIC used as test concentration; antifungals tested for C. albicans; cited from earlier work.
For experiment [10], the system named is E. coli. The experiment in a line: MAST: succinate production after 4 h incubation with antimicrobial. It counts as cell-based, Escherichia coli. As to conditions: AMP and SXT resistant E. coli strain, antibiotics at MIC.
Text: All chemicals were obtained from Sigma-Aldrich (St. Louis, Mo. USA), VWR (Radnor, Pa. USA), or Fisher Scientific (Waltham, Mass. USA) unless otherwise specified. Clinical isolates used in this study were obtained from bloodstream infected patients. All strains were first identified and tested for antibiotic susceptibility using a clinical laboratory testing pipeline (plating on selective medium for single colony isolation, Gram staining, MALDI-TOF-MS species identification, and sub-culturing for purity and inoculation onto VITEK 2 (bioMerieux) antimicrobial susceptibility panels), and subsequently frozen as cryostocks. With the exception of S. pneumoniae, all strains were routinely grown in Mueller Hinton medium (BD Difco, Mississauga, ON, Canada). […] Supernatant was then diluted 1:10 with 50% LC-MS grade methanol and analyzed using UHPLC-MS. […]
To assess MAST as a potential clinical tool, three patient isolates for each target pathogen (2 each for S. aureus and P. aeruginosa) were analyzed. […] Both bactericidal (penicillins, cephalosporins, carbapenems, glycopeptides, aminoglycosides and fluoroquinolones) and bacteriostatic (macrolides, tetracyclines, and trimethoprim-sulfamethoxazole) antibiotic classes were evaluated.

In brackets after ≈: the same amount, converted by molar mass.

On to gentamicin, for which the minimum inhibitory concentrations is 500 µg/mL in experiment [1] and 4 µg/mL in experiment [2].
As to `CO/N=C(\C(=O)N[C@@H]1C(=O)N2C(C(=O)O)=C(CSc3nc(=O)c(=O)[nH]n3C)CS[C@H]12)c1csc(N)n1` [CRO, Ceftriaxone], the minimum inhibitory concentrations was 0.5 µg/mL (≈ 0.902 µM) in [3], 1 µg/mL (≈ 1.8 µM) in experiment [4] and 1 µg/mL (≈ 1.8 µM) in experiment [5].
As to `Cc1onc(-c2ccccc2)c1C(=O)N[C@@H]1C(=O)N2[C@@H]1SC(C)(C)[C@@H]2C(=O)O` [OXA, oxacillin], the minimum inhibitory concentrations in [2] was 2 µg/mL (≈ 4.98 µM).
`CC[C@H]1OC(=O)[C@H](C)[C@@H](O[C@H]2C[C@@](C)(OC)[C@@H](O)[C@H](C)O2)[C@H](C)[C@@H](O[C@@H]2O[C@H](C)C[C@H](N(C)C)[C@H]2O)[C@](C)(O)C[C@@H](C)C(=O)[C@H](C)[C@@H](O)[C@]1(C)O` [ERY, erythromycin]: the minimum inhibitory concentrations was 0.25 µg/mL (≈ 0.341 µM) in [3] and 0.5 µg/mL (≈ 0.681 µM) in experiment [6].
For the compound `CC(C)(O/N=C(\C(=O)N[C@@H]1C(=O)N2C(C(=O)[O-])=C(C[n+]3ccccc3)CS[C@H]12)c1csc(N)n1)C(=O)O` [CAZ, ceftazidime], in experiment [2], the minimum inhibitory concentrations is 8 µg/mL (≈ 14.6 µM).
In the case of penicillin, the minimum inhibitory concentrations in [2] is 0.06 µg/mL.
Consider `CN[C@H](CC(C)C)C(=O)N[C@H]1C(=O)N[C@@H](CC(N)=O)C(=O)N[C@H]2C(=O)N[C@H]3C(=O)N[C@H](C(=O)N[C@H](C(=O)O)c4cc(O)cc(O)c4-c4cc3ccc4O)[C@H](O)c3ccc(c(Cl)c3)Oc3cc2cc(c3O[C@@H]2O[C@H](CO)[C@@H](O)[C@H](O)[C@H]2O[C@H]2C[C@](C)(N)[C@H](O)[C@H](C)O2)Oc2ccc(cc2Cl)[C@H]1O` [VAN, vancomycin], for which the minimum inhibitory concentrations is 1 µg/mL (≈ 0.69 µM) in experiment [3], 4 µg/mL (≈ 2.76 µM) in experiment [1] and 2 µg/mL (≈ 1.38 µM) in experiment [6].
As for `C[C@@H](O)[C@H]1C(=O)N2C(C(=O)O)=C(S[C@@H]3CN[C@H](C(=O)N(C)C)C3)[C@H](C)[C@H]12` [MEM, meropenem], the hypoxanthine production result in experiment [7] (drug sensitive strains, range of meropenem concentrations) is listed as “incremental reduction in hypoxanthine production proportional to meropenem concentrations”; in experiment [7] (resistant strains, clinically-relevant antibiotic concentrations), “remain unaffected”. The minimum inhibitory concentrations in experiment [3] was 0.25 µg/mL (≈ 0.652 µM); in experiment [4], 1 µg/mL (≈ 2.61 µM); in experiment [5] it was 1 µg/mL (≈ 2.61 µM); in [8], 2 µg/mL (≈ 5.22 µM).
Take `Nc1nc(=O)[nH]cc1F` [5FC, 5-flucytosine]: in [9], the minimum inhibitory concentrations was 0.5 µg/mL (≈ 3.87 µM).
Consider `C[C@@H]1[C@H](O)[C@@H](C)/C=C/C=C/C=C/C=C/C=C/C=C/C=C/[C@H](O[C@@H]2O[C@H](C)[C@@H](O)[C@H](N)[C@@H]2O)C[C@@H]2O[C@](O)(C[C@@H](O)C[C@@H](O)[C@H](O)CC[C@@H](O)C[C@@H](O)CC(=O)O[C@H]1C)C[C@H](O)[C@H]2C(=O)O` [AMB, amphotericin B], for which, in experiment [9], the minimum inhibitory concentrations is 2 µg/mL (≈ 2.16 µM).
Regarding `CC1(C)S[C@@H]2[C@H](NC(=O)[C@H](N)c3ccccc3)C(=O)N2[C@H]1C(=O)O` [AMP, ampicillin], the “succinate production in presence of antibiotic versus absence of antibiotics” value in experiment [10] is on record as “comparable”. Moreover, the minimum inhibitory concentrations in experiment [2] is 8 µg/mL (≈ 22.9 µM).
With `Cc1nnc(SCC2=C(C(=O)O)N3C(=O)[C@@H](NC(=O)Cn4cnnn4)[C@H]3SC2)s1` [CFX, cefazolin], the minimum inhibitory concentrations in [2] was 4 µg/mL (≈ 8.8 µM).
On to `OC(Cn1cncn1)(Cn1cncn1)c1ccc(F)cc1F` [FLC, fluconozole], for which the minimum inhibitory concentrations in experiment [9] is 2 µg/mL (≈ 6.53 µM).
